In patent US7745641B2, “Nitrogen-containing heterocyclic compound” (Kyowa Hakko Kirin Co., Ltd., priority 2005, dated 2010):

Legend:
[1] = system: Aurora; test: Aurora inhibitory activity using Western blotting method (phosphorylation of histone H3 Ser10); type: cell-based, human; details: 10 μmol/L, 30 minutes, HCT116 cells accumulated in M phase with Nocodazole
From the text: It is known that Aurora phosphorylates Ser10 of histone H3 in the G2/M phase during the cell cycle [Molecular and Cellular Biology, Vol. 22, p. 874 (2002)]. Consequently, the inhibition of phosphorylation of histone H3 Ser10 in cells was detected by a Western blotting method using human colon cancer cell line HCT116 cells accumulated in the M phase. McCoy's 5A culture medium (GIBCO, Catalogue No. 16600-082) containing 10% bovine fetus serum (GIBCO, Catalogue No. 10099-141) was used for the cultivation of the cells. The HCT116 cells were inoculated and then treated with Nocodazole (Sigma Corporation, Catalogue No. M-1404) so that the cell cycle was accumulated to the M phase. A test compound (final concentration: 10 μmol/L) was added thereto, and the cells were incubated at 37° C. for 30 minutes. The cells were then recovered and washed with a phosphate buffered saline (PBS) once. The cells were suspended in a cell-solubilizing solution (50 mmol/L 2-[4-(2-hydroxyethyl)-1-piperazinyl]ethanesulfonic acid (HEPES) (pH 7.4), 150 mmol/L NaCl, 1 mmol/L ethylenediamine-N,N,N′,N′-tetraacetic acid disodium salt dihydrate (EDTA), 2.5 mmol/L ethylene glycol bis(2-aminoethylether)-N,N,N′,N′-tetraacetic acid (EGTA), 0.1% Tween-20 (Bio-Rad Laboratories Inc., Catalogue No. 170-6531), 10% β-glycerophosphate, 1 mmol/L NaF, 0.1 mmol/L Na3VO4, 1 mmol/L Pefabloc SC (Roche Diagnostics K.K., Catalogue No. 1 429 868), and Complete EDTA-free (Roche Diagnostics K.K., Catalogue No. 1 873 580)}, and the suspension was frozen and thawed. Subsequently, the supernatant obtained by centrifugal separation was used as a cell extraction solution. SDS-PAGE was performed using a 12.5% polyacrylamide gel under the condition that the amount of protein per sample was 30 μg in accordance with the method used by Laemmli et al. The protein was transferred onto a PVDF membrane (Millipore Corporation, Catalogue No. IPVH304F0) by a semi-dry method. The membrane was allowed to react with anti-phosphorylated histone H3 Ser10 antibody (Upstate Inc., Catalogue No. 06-570) used as a primary antibody, and an HRP-labeled anti-rabbit IgG antibody (Amersham biosciences, Catalogue No. NA934V) used as a secondary antibody. Subsequently, […] was detected using a SuperSignal West Pico chemiluminescence substrate (Pierce, Catalogue No. 34077).

[2] = system: HCT116 cells; test: Evaluation of Aurora inhibitory activity by analysis of nuclear morphology (enlarged lobed nuclei); type: cell-based, human; details: concentration in the range of 0.1 to 1 μmol/L, 17 hours contact; optimal concentration different in each compound
Experimental: 281 (2003)]. Consequently, enlarged lobed nuclei-inducibility of test compounds for HCT116 cells was evaluated. McCoy's 5A culture medium (GIBCO, Catalogue No. 16600-082) containing 10% bovine fetus serum (GIBCO, Catalogue No. 10099-141) was used for the cultivation of the cells. HCT116 cells were inoculated and, 24 hours later, each test compound was added thereto.

Compound: Cl.O=C1NCc2c(Cl)ccc(-c3cc4cc(CN5CCCCC5)ccc4[nH]3)c21 [Compound 29, 4-Chloro-7-[1H-5-(piperidinomethyl)indol-2-yl]isoindolinone hydrochloride]
- suppression of the phosphorylation of histone H3 Ser10 in HCT116 cells [1]: almost completely suppressed
- ability of inducing enlarged lobed nuclei for HCT116 cells [2]: show ability of inducing enlarged lobed nuclei

Compound: COc1cc(-c2cc3cc(CN4CCCCC4)ccc3[nH]2)c2c(c1OS(=O)(=O)c1ccsc1)CNC2=O.Cl [Compound 407, 4-(3-Thiophenesulfonyloxy)-5-methoxy-7-[1H-5-(piperidinomethyl)indol-2-yl]isoindolinone hydrochloride]
- suppression of the phosphorylation of histone H3 Ser10 in HCT116 cells [1]: almost completely suppressed
- ability of inducing enlarged lobed nuclei for HCT116 cells [2]: show ability of inducing enlarged lobed nuclei

Compound: COc1cc(-c2cc3cc(CN(C)C)ccc3[nH]2)c2c(c1OS(=O)(=O)c1ccccn1)CNC2=O.Cl [Compound 412, 4-(2-Pyridinesulfonyloxy)-5-methoxy-7-[1H-5-(dimethylaminomethyl)indol-2-yl]isoindolinone hydrochloride]
- suppression of the phosphorylation of histone H3 Ser10 in HCT116 cells [1]: almost completely suppressed
- ability of inducing enlarged lobed nuclei for HCT116 cells [2]: show ability of inducing enlarged lobed nuclei

Compound: COc1cc(-c2cc3cc(N4CCN(C)CC4)ccc3[nH]2)c2c(c1OS(C)(=O)=O)CNC2=O.Cl.Cl [Compound 457, 4-Methanesulfonyloxy-5-methoxy-7-[1H-5-(4-methylpyperazin-1-yl)indol-2-yl]isoindolinone dihydrochloride]
- suppression of the phosphorylation of histone H3 Ser10 in HCT116 cells [1]: almost completely suppressed
- ability of inducing enlarged lobed nuclei for HCT116 cells [2]: show ability of inducing enlarged lobed nuclei

Compound: O=C1NCc2c(Cl)ccc(-c3cc4cc(C(=O)N5CCN(c6ccccn6)CC5)ccc4[nH]3)c21 [Compound 107, 4-Chloro-7-{1H-5-[4-(pyridin-2-yl)piperazin-1-ylcarbonyl]indol-2-yl}isoindolinone]
- melting point: > 295 °C

Compound: COc1cc(-c2cc3cc(CN4CCCC4)ccc3[nH]2)c2c(c1OS(=O)(=O)N(C)C)CNC2=O.Cl [Compound 417, 4-(Dimethylsulfamoyloxy)-5-methoxy-7-[1H-5-(pyrrolidin-1-ylmethyl)indol-2-yl]isoindolinone hydrochloride]
- suppression of the phosphorylation of histone H3 Ser10 in HCT116 cells [1]: almost completely suppressed
- ability of inducing enlarged lobed nuclei for HCT116 cells [2]: show ability of inducing enlarged lobed nuclei

Compound: CNCc1ccc2[nH]c(-c3cc(OC)c(OS(C)(=O)=O)c4c3C(=O)NC4)cc2c1.Cl [Compound 375, 4-Methanesulfonyloxy-5-methoxy-7-[1H-5-(methylaminomethyl)indol-2-yl]isoindolinone hydrochloride]
- suppression of the phosphorylation of histone H3 Ser10 in HCT116 cells [1]: almost completely suppressed
- ability of inducing enlarged lobed nuclei for HCT116 cells [2]: show ability of inducing enlarged lobed nuclei

Compound: O=C(NCc1ccccc1)c1ccc2[nH]c(-c3ccc(Cl)c4c3C(=O)NC4)cc2c1 [Compound 57, 4-Chloro-7-[1H-5-(benzylaminocarbonyl)indol-2-yl]isoindolinone]
- melting point: 246 °C

Compound: CN(C)CCN1CCN(C(=O)c2ccc3[nH]c(-c4ccc(Cl)c5c4C(=O)NC5)cc3c2)CC1 [Compound 112, 4-Chloro-7-{1H-5-[4-(2-dimethylaminoethyl)piperazin-1-ylcarbonyl]indol-2-yl}isoindolinone]
- melting point: 271 to 272 °C

Compound: Cl.Cl.O=C1NCc2c(Cl)ccc(-c3cc4cc(CN5CCN(CCO)CC5)ccc4[nH]3)c21 [Compound 24, 4-Chloro-7-{1H-5-[4-(2-hydroxyethyl)piperazin-1-ylmethyl]indol-2-yl}isoindolinone dihydrochloride]
- suppression of the phosphorylation of histone H3 Ser10 in HCT116 cells [1]: almost completely suppressed
- ability of inducing enlarged lobed nuclei for HCT116 cells [2]: show ability of inducing enlarged lobed nuclei

Compound: CCN(CC)Cc1ccc2[nH]c(-c3cc(OC)c(OS(C)(=O)=O)c4c3C(=O)NC4)cc2c1.Cl [Compound 376, 4-Methanesulfonyloxy-5-methoxy-7-[1H-5-(diethylaminomethyl)indol-2-yl]isoindolinone hydrochloride]
- suppression of the phosphorylation of histone H3 Ser10 in HCT116 cells [1]: almost completely suppressed
- ability of inducing enlarged lobed nuclei for HCT116 cells [2]: show ability of inducing enlarged lobed nuclei

Compound: CN(C)Cc1ccc2[nH]c(-c3cc(OCCCO)c(Cl)c4c3C(=O)NC4)cc2c1.Cl [Compound 431, 4-Chloro-5-(3-hydroxypropoxy)-7-[1H-5-(dimethylaminomethyl)indol-2-yl]isoindolinone hydrochloride]
- suppression of the phosphorylation of histone H3 Ser10 in HCT116 cells [1]: almost completely suppressed
- ability of inducing enlarged lobed nuclei for HCT116 cells [2]: show ability of inducing enlarged lobed nuclei

Compound: Cl.O=C1NCc2c(Cl)ccc(-c3cc4cc(CNCCO)ccc4[nH]3)c21 [Compound 32, 4-Chloro-7-{1H-5-[(2-hydroxyethyl)aminomethyl]indol-2-yl}isoindolinone hydrochloride]
- suppression of the phosphorylation of histone H3 Ser10 in HCT116 cells [1]: almost completely suppressed
- ability of inducing enlarged lobed nuclei for HCT116 cells [2]: show ability of inducing enlarged lobed nuclei

Compound: Cl.NS(=O)(=O)Oc1ccc(-c2cc3cc(CN4CCCCC4)ccc3[nH]2)c2c1CNC2=O [Compound 231, 4-Sulfamoyloxy-7-[1H-5-(piperidinomethyl)indol-2-yl]isoindolinone hydrochloride]
- suppression of the phosphorylation of histone H3 Ser10 in HCT116 cells [1]: almost completely suppressed
- ability of inducing enlarged lobed nuclei for HCT116 cells [2]: show ability of inducing enlarged lobed nuclei

Compound: COCCCNCc1ccc2[nH]c(-c3cc(OC)c(OS(C)(=O)=O)c4c3C(=O)NC4)cc2c1.Cl [Compound 454, 4-Methanesulfonyloxy-5-methoxy-7-[1H-5-(3-methoxypropylaminomethyl)indol-2-yl]isoindolinone hydrochloride]
- suppression of the phosphorylation of histone H3 Ser10 in HCT116 cells [1]: almost completely suppressed
- ability of inducing enlarged lobed nuclei for HCT116 cells [2]: show ability of inducing enlarged lobed nuclei

Compound: Cl.O=C1NCc2c(Cl)ccc(-c3cc4cc(C(=O)N5CCNCC5)ccc4[nH]3)c21 [Compound 22]
- suppression of the phosphorylation of histone H3 Ser10 in HCT116 cells [1]: almost completely suppressed
- ability of inducing enlarged lobed nuclei for HCT116 cells [2]: show ability of inducing enlarged lobed nuclei

Compound: Cl.O=C1NCc2c(O)ccc(-c3cc4cc(CN5CCCCC5)ccc4[nH]3)c21 [Compound 139, 4-Hydroxy-7-[1H-5-(piperidinomethyl)indol-2-yl]isoindolinone hydrochloride]
- suppression of the phosphorylation of histone H3 Ser10 in HCT116 cells [1]: almost completely suppressed
- ability of inducing enlarged lobed nuclei for HCT116 cells [2]: show ability of inducing enlarged lobed nuclei

Compound: Cl.O=C1NCc2c(-c3ccco3)ccc(-c3cc4cc(CN5CCCCC5)ccc4[nH]3)c21 [Compound 143, 4-(Furan-2-yl)-7-[1H-5-(piperidinomethyl)indol-2-yl]isoindolinone hydrochloride]
- suppression of the phosphorylation of histone H3 Ser10 in HCT116 cells [1]: almost completely suppressed
- ability of inducing enlarged lobed nuclei for HCT116 cells [2]: show ability of inducing enlarged lobed nuclei

Compound: Cl.O=C1NCc2c(C#CCO)ccc(-c3cc4cc(CN5CCCCC5)ccc4[nH]3)c21 [Compound 321, 4-(3-Hydroxy-1-propinyl)-7-[1H-5-(piperidinomethyl)indol-2-yl]isoindolinone hydrochloride]
- suppression of the phosphorylation of histone H3 Ser10 in HCT116 cells [1]: almost completely suppressed
- ability of inducing enlarged lobed nuclei for HCT116 cells [2]: show ability of inducing enlarged lobed nuclei

Compound: COc1cc(-c2cc3cc(CN(C)C)ccc3[nH]2)c2c(c1O)CNC2=O.Cl [Compound 357, 4-Hydroxy-5-methoxy-7-[1H-5-(dimethylaminomethyl)indol-2-yl]isoindolinone hydrochloride]
- suppression of the phosphorylation of histone H3 Ser10 in HCT116 cells [1]: almost completely suppressed
- ability of inducing enlarged lobed nuclei for HCT116 cells [2]: show ability of inducing enlarged lobed nuclei
